Measurements as given in patent US20120009320A1, “COMPOSITIONS COMPRISING MONATIN AND CALCIUM” (priority 2009, published 2012).
Counter-ions that a name gives are not always drawn.

Experiments:
panelists = test: Sweetness matching of monatin/salt combinations in water pH 7 and citric/citrate buffer pH 3, Examples 3-5; type: in vivo, human; details: Monatin only (40 ppm), no salt
Protocol: Test and reference solutions were prepared in the same medium. The SEVs of monatin/salt combinations at the appropriate concentrations were measured and compared to the SEV of monatin measured in the absence of any salts. […] Monatin-containing test samples and sucrose references were prepared in the same medium. Based on the previous observations that the sweetness of monatin relative to sucrose is sweeter at acidic pH, this study was carried out under two pH conditions; specifically, in water at pH 7-7.5 and in a citric/citrate buffer at pH 3.0. 2R,4R-Monatin mono potassium salt was used as an illustrative form of monatin for the experiments below. All monatin solutions were prepared ‘as is’, i.e., a 40 ppm monatin solution is 40 ppm of monatin mono potassium salt. A sweetness matching procedure was adopted. […] Each test sample was either monatin control or monatin plus designated salt at the stated concentration. Panelists were instructed to taste the test sample and then to identify the reference sample that matched the perceived sweetness of the test sample. If the sweetness of the test sample was judged to fall between that of two references, panelists were instructed to estimate sweetness to one decimal point. Panelists evaluated each sample in duplicate. Results for each test sample were averaged. […] The five samples were tested at pH 7 (water medium) and at pH 3 (citric/citrate buffer). […] The weight percent of calcium in the salt is different for each of the calcium salts. As such, the weight percent of the calcium salt in each sample is calculated in order to determine how much salt is needed to deliver 1200 ppm of calcium cations. […] The weight percent of the other calcium salts is similarly calculated based on the molar weight percent of calcium in the calcium salt. […] The samples were created at pH 3 and pH 7. The impact of other metal ions, specifically potassium and magnesium, (i.e. […] These ions were tested in the form and concentrations found in cow's milk.

[1] = Sweetness match of monatin-sweetened strawberry yogurt to 8% sucrose target; type: in vivo
Protocol: A strawberry yogurt sweetened with about 8% sucrose was prepared by conventional methods common to one skilled in the art of yogurt manufacturing to serve as a sweetness target. […] The monatin-sweetened yogurt that most closely matched the sweetness of the target sucrose sample was chosen.

Q: Which “Sucrose Equivalency Value” (panelists; pH 3.0 citric/citrate buffer) does the source give for `NC(CC(O)(Cc1c[nH]c2ccccc12)C(=O)O)C(=O)O` (stereo not drawn) [R,R-Monatin, 2R,4R-Monatin mono potassium salt] here?
A: 8.6%

Q: What about the “Sucrose Equivalency Value” (panelists; pH 7.0 water) of the same compound?
A: 8.4%

Q: What about the “monatin concentration that most closely matched the sweetness of yogurt sweetened to 8% sucrose” value ([1]; strawberry yogurt) of the same compound?
A: about 25 ppm

Q: And the “times as sweet as sucrose” value ([1]; strawberry yogurt)?
A: about 3200 times

Q: And the SEV ([1]; strawberry yogurt with 25 ppm R,R monatin)?
A: about 8%
